Patent US20030100109A1, “Methods and compositions for in vitro germination and propagation of polygonatum cirrhifolium royle” (priority 2001, published 2003)
Values joined by “and” are separate entries in the source; they are usually repeats but may differ in a detail not shown here. Identical values can stand only once.

Legend:
[1] = system: Polygonatum cirrhifolium Royle secondary explants; test: De novo axillary bud differentiation and release of foliage leaves on MS medium with GA3, BAP and NAA; type: in vivo; conditions: for Percentage axillary buds producing leaves / Percentage secondary-explants producing axillary buds / Mean number of axillary buds per secondary explant: MS medium, after 16 weeks of culture; for Mean number of axillary buds per secondary explant: ± SE
Excerpt: Cultures were maintained at 50-60% RH. Plants were subcultured every four weeks in both sets of experiments on the same media formulations. Observations were made periodically but final data was compiled after 16 weeks of culture. In still another embodiment of the present invention, results in table 4 and 5 show the influence of various concentrations and combinations of BAP, NAA and GA3 on the in vitro release of epicotyl dormancy indicated by the release of rosette of leaves and induction of de novo axillary bud differentiation and their sprouting at 20-24° C. under 10-16 hr photoperiod (2000-3500 lux) at 50-60% of RH. […] Each treatment consisted of 24 cultures. These were incubated at 20° C. under 16 hr photoperiod (2000 lux) at 60% RH. […] There is a concomitant increase in the elicitation of response with the increasing concentrations of GA3.

[2] = system: Polygonatum cirrhifolium Royle seeds with emerged hypocotyl; test: Synchronization of germination: release of epicotyl, coleoptile and radicle from seeds with emerged hypocotyl; type: in vivo; conditions: modified MS culture medium, 20° C., 16 hr photoperiod
Description: Germination was evaluated every three days by examining seeds for hypocotyl emergence. […] Seeds with emerged hypocotyl were transferred under aseptic conditions to the above defined basal culture medium containing gibberellic acid at 5, 25, 50 and 100 mg/L. Transferred plants were incubated in an environment having 8-16-hr days under about 2000 lux of light and about 8-16-hr nights in total darkness at a constant temperature of 20° C. ([…]) and at 50-60% RH. Illumination was provided by 40-watt cool, white fluorescent tubes. Germination synchronization as indicated by differentiated epicotyl with emergent coleoptile and radicle was recorded on daily basis. The consequent step of synchronization of germination is presented in table 3 in which epicotyl with emergent coleoptile and radicle is manifest under 8-16 hr photoperiod (light intensity 2000-3500 lux) at an incubation temperature of 20° C. (RH 50-60%). In this experiment seeds with emerged hypocotyl were transferred to the culture to modified MS basal culture medium containing of 2.2 g/L NH4NO3, 2.0 g/L KNO3, 0.44 g/l CaCl2.2H2P, 0.37 g/L MgSO4.7H20, 0.17 g/L KH2PO4, 37.25 mg/L Na2 EDTA, 27.8 mg/L FeSO4.7H20, 0.83 mg/L KI, 6.2 mg/L H3BO3, 22.3 mg/L MnSO4.4H20, 8.6 mg/L ZnSO4.7H20, 0.25 mg/L Na2MoO4.2H20, 0.025 mg/L CuSO4.5H2O, 0.025 mg/L CoCl2.6H20, 250 mg/L myo-inositol, 0.5 mg/L nicotinic acid, 0.5 mg/L pyridoxine HCl, 3 mg/L thiamine HCl, 2 mg/L glycine, 30 g/L sucrose and 7.5 g/L agar and supplemented with 4 concentrations of GA3 viz. […], 25, 50 and 100 mg/L. Cultures were incubated at 20° C. under 16 hr photoperiod in a growth chamber. there were four treatments in total and each treatment consisted of 15 replicates with 4 seeds with emerged hypocotyl in each replicate. The effect of various treatments on the release of epicotyl, coleoptile radicle and days to release/synchronization is described in table 3.100 mg/L of GA3 results in 100% synchronization after 11 days of culture.

[3] = GA3 1. mg/L in combination and 1.0 mg/L of NAA
[4] = GA3 5. mg/L in combination and 1.0 mg/L of NAA
[5] = GA3 10. mg/L in combination and 1.0 mg/L of NAA
[6] = GA3 15. mg/L in combination and 1.0 mg/L of NAA
[7] = GA3 20. mg/L in combination and 1.0 mg/L of NAA

## C=C1C[C@]23C[C@@]1(O)CC[C@H]2[C@@]12C=C[C@H](O)[C@@](C)(C(=O)O1)[C@H]2[C@@H]3C(=O)O [GA3, gibberellic acid]
[1]; [3]
  Percentage axillary buds producing leaves: 37.03%
  Percentage secondary-explants producing axillary buds: 16.67%
  Mean number of axillary buds per secondary explant: 2.70 ± 0.70
[1]; GA3 1. mg/L in combination and 1.0 mg/L of NAA, remark wraps over r12-r14: Epicotylar bulge swells forms rhizomatous base
  Remarks: Epicotylar bulge
[1]; [4]
  Percentage axillary buds producing leaves: 46.58— %
  Percentage secondary-explants producing axillary buds: 70.83%
  Mean number of axillary buds per secondary explant: 6.44 ± 1.04
[1]; [5]
  Percentage axillary buds producing leaves: 66.22%
  Percentage secondary-explants producing axillary buds: 87.50%
  Mean number of axillary buds per secondary explant: 9.06 ± 2.00
[1]; [6]
  Percentage axillary buds producing leaves: 77.12%
  Percentage secondary-explants producing axillary buds: 100.00%
  Mean number of axillary buds per secondary explant: 11.67 ± 1.96
[1]; [7]
  Percentage axillary buds producing leaves: 97.03%
  Percentage secondary-explants producing axillary buds: 100.00%
  Mean number of axillary buds per secondary explant: 8.96 ± 2.01
[1]; GA3 20. mg/L in combination and 1.0 mg/L of NAA, remark wraps over r18-r20: Rhizomatous base, callus induction
  Remarks: Rhizomatous
[2]; GA3 10 mg/L
  Days to release epicotyl, coleoptile & radicle: 21 days
  Percent seeds with epicotyl, coleoptile & radicle: 23.71 ± 2.00%
[2]; GA3 25 mg/L
  Days to release epicotyl, coleoptile & radicle: 18 days
  Percent seeds with epicotyl, coleoptile & radicle: 78.23 ± 3.11%
[2]; GA3 50 mg/L
  Days to release epicotyl, coleoptile & radicle: 14 days
  Percent seeds with epicotyl, coleoptile & radicle: 100.00 ± 0.00%
[2]; GA3 100 mg/L
  Days to release epicotyl, coleoptile & radicle: 11 days
  Percent seeds with epicotyl, coleoptile & radicle: 100% and 100.00 ± 0.00%
